# Assay results taken from patent US10160747B2, “Compounds and methods for kinase modulation, and indications therefor” (Plexxikon Inc., priority 2016, dated 2018).
# Assays:
# FLT3-ITD = molecular target: T1, FLT3-ITD (Homo sapiens, UniProt P36888); assay: FLT3-ITD recombinant enzyme kinase assay (AlphaScreen); format: biochemical; details: 8 pt; read-out: FLT3_ITD 8 pt: IC50
# T1 sequence (P36888 1-993): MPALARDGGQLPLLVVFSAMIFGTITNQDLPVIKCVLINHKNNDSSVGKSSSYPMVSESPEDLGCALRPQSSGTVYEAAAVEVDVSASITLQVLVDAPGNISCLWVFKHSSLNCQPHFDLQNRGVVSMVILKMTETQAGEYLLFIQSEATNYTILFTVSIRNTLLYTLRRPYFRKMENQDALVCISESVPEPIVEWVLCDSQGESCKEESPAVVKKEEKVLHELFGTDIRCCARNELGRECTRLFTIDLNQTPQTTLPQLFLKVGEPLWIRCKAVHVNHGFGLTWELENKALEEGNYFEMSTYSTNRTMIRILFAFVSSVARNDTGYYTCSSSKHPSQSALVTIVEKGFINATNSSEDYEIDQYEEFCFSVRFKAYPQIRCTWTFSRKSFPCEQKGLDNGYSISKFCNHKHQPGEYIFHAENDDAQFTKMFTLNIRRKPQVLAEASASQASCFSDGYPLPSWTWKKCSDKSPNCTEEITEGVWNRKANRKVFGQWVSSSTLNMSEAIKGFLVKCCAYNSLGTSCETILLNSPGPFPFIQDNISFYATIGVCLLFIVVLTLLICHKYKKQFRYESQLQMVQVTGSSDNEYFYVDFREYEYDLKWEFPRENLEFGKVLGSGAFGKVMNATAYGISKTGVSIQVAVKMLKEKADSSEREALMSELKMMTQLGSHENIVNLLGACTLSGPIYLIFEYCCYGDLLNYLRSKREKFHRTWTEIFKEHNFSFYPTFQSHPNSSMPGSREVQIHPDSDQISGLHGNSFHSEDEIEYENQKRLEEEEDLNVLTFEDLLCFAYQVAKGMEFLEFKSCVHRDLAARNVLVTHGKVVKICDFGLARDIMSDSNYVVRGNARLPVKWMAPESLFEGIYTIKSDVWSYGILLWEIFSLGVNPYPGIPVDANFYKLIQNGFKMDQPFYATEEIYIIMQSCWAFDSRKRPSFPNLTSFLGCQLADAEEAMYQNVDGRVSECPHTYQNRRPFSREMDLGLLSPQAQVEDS
# Outline: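 AlphaScreen proximity signal at 580 nm, from PY20 acceptor and streptavidin donor beads, measures tyrosine phosphorylation of 30 nM biotin-poly(Glu4-Tyr) peptide by recombinant kinase. ATP: 10 μM (FLT3 mutants), 100 μM (c-KIT). IC50 from loss of signal.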
# CSF1R = CSF1R (Homo sapiens, UniProt P07333); assay: CSF1R 100 ATP 8 pt kinase assay (Table 6); format: biochemical
# Source text: The following Table 6 provides data indicating FLT3 ITD, D835Y and F691L; c-KIT and CSF1R biochemical and/or cell inhibitory activity for exemplary compounds as described herein.
# CSF1R, sequence (P07333 20-972, species assumed): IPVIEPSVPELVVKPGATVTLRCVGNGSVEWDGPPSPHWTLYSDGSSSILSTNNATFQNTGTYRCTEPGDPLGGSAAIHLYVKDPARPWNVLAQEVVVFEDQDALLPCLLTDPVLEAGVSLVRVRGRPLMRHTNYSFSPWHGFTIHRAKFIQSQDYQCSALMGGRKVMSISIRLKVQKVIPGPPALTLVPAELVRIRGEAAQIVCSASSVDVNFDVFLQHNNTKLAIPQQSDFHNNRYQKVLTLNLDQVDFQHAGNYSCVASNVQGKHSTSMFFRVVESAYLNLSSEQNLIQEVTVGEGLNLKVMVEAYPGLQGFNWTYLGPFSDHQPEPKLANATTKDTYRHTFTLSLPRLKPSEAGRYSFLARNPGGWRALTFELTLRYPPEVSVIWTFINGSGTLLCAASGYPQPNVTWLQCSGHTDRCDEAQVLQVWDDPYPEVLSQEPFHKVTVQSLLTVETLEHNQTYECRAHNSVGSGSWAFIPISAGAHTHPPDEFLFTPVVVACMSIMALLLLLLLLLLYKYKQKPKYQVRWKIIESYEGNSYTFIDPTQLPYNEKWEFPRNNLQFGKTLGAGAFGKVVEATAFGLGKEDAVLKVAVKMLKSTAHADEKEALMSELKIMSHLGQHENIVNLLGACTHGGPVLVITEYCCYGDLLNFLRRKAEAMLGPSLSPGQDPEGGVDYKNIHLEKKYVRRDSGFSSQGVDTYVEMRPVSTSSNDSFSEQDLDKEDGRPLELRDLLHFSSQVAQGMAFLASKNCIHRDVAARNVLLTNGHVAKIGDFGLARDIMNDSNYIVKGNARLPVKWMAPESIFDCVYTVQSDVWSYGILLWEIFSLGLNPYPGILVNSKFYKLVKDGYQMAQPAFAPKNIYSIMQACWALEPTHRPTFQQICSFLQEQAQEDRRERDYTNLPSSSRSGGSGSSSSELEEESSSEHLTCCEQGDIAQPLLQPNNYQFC
Compound,IC50 (FLT3-ITD) [µM],IC50 (CSF1R) [µM]
"CCC(=O)c1c[nH]c2ncc(-c3ccc(CC(=O)Nc4cnc(C)c(C(F)(F)F)c4)c(F)c3)cc12 [Compound P-0070, 2-[2-fluoro-4-(3-propanoyl-1H-pyrrolo[2,3-b]pyridin-5-yl)phenyl]-N-[6-methyl-5-(trifluoromethyl)-3-pyridyl]acetamide]",0.0001 to 10,0.0001 to 10
"O=C(Cc1ccc(-c2cnc3[nH]nc(C4CC4)c3c2)cc1F)Nc1cncc(C(F)(F)F)c1 [Compound P-0072, 2-[4-(3-cyclopropyl-1H-pyrazolo[3,4-b]pyridin-5-yl)-2-fluoro-phenyl]-N-[5-(trifluoromethyl)-3-pyridyl]acetamide]",0.0001 to 10,0.0001 to 10
"Cn1cnc(Nc2ncc(-c3ccc(CC(=O)Nc4cc(C(C)(F)F)ccn4)cc3F)cn2)c1 [Compound P-0171, N-[4-(1,1-difluoroethyl)-2-pyridyl]-2-[3-fluoro-4-[2-[(1-methylimidazol-4-yl)amino]pyrimidin-5-yl]phenyl]acetamide]",0.0001 to 10,

# Now from value to compound:
IC50 (FLT3-ITD) [µM],IC50 (CSF1R) [µM],Compound
0.0001 to 10,0.0001 to 10,"O=C(Cc1ccc(-c2cnc3[nH]nc(C4CC4)c3c2)cc1)Nc1cncc(C(F)(F)F)c1 [Compound P-0073, 2-[4-(3-cyclopropyl-1H-pyrazolo[3,4-b]pyridin-5-yl)phenyl]-N-[5-(trifluoromethyl)-3-pyridyl]acetamide]"
0.0001 to 10,,"Cn1cc(Nc2ncc(-c3ccc(CC(=O)Nc4cncc(C(C)(F)F)c4)c(F)c3)cn2)cn1 [Compound P-0090, N-[5-(1,1-difluoroethyl)-3-pyridyl]-2-[2-fluoro-4-[2-[(1-methylpyrazol-4-yl)amino]pyrimidin-5-yl]phenyl]acetamide]"
0.0001 to 10,,"Cn1cc(Nc2ncc(-c3ccc(CC(=O)NCc4ccc(C(F)(F)F)cn4)cc3)cn2)cn1 [Compound P-0162, 2-[4-[2-[(1-methylpyrazol-4-yl)amino]pyrimidin-5-yl]phenyl]-N-[[5-(trifluoromethyl)-2-pyridyl]methyl]acetamide]"
